Our source for the % of control, IC50 and % of inhibition values is ChEMBL document CHEMBL5465560, “Selectivity Literature for EUbOPEN Chemogenomic Library” (2024).

As a reminder, the IC50 is the concentration at which inhibition is half-maximal. Low values mean greater potency in that assay, high ones weaker potency in that assay.

In assay [1] the target is Serine/threonine-protein kinase MRCK gamma (Homo sapiens) (UniProt Q6DT37). Description: Selectivity interaction (Kinase panel (Z-LYTE Assay)) EUB0001632a CDC42BPG. To be noted: at 10 µM.
The target of assay [2] is T1, Mitogen-activated protein kinase 15 (Homo sapiens) (UniProt Q8TD08).
T1 sequence (whole entry): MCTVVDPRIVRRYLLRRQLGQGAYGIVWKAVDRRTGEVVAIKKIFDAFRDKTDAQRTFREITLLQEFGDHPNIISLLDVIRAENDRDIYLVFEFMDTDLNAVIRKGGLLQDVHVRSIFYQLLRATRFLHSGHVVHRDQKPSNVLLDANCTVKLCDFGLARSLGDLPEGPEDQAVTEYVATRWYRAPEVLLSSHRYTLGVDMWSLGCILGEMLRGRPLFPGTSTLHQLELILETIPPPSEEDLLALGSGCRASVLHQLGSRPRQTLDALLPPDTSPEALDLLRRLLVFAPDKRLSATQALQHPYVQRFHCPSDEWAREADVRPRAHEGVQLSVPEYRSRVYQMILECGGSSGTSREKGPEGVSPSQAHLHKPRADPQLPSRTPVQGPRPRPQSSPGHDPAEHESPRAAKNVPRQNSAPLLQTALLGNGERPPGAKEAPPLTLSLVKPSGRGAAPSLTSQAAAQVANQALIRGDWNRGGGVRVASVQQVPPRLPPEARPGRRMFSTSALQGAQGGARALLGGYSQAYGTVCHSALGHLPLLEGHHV
In words: Selectivity interaction (KinomeScan (DiscoverX)) EUB0000595a MAPK15. As to conditions: at 10 µM.

Assay [3] concerns Hepatocyte growth factor receptor (Homo sapiens), P08581 [M1250T]. In words: (§1) Selectivity interaction (KinomeScan (DiscoverX)) EUB0001619a MET. To be noted: at 1 µM.
Assay [4] has as its system Hepatocyte growth factor receptor (Homo sapiens), P08581 [Y1235D]. Described as §1. To be noted: at 1 µM.
Assay [5] deals with Hepatocyte growth factor receptor (Homo sapiens, UniProt P08581). The assay is described as §1. To be noted: at 1 µM.
Assay [6] concerns the target T2, Mitogen-activated protein kinase kinase kinase 5 (Homo sapiens) (UniProt Q99683).
T2 sequence (whole entry): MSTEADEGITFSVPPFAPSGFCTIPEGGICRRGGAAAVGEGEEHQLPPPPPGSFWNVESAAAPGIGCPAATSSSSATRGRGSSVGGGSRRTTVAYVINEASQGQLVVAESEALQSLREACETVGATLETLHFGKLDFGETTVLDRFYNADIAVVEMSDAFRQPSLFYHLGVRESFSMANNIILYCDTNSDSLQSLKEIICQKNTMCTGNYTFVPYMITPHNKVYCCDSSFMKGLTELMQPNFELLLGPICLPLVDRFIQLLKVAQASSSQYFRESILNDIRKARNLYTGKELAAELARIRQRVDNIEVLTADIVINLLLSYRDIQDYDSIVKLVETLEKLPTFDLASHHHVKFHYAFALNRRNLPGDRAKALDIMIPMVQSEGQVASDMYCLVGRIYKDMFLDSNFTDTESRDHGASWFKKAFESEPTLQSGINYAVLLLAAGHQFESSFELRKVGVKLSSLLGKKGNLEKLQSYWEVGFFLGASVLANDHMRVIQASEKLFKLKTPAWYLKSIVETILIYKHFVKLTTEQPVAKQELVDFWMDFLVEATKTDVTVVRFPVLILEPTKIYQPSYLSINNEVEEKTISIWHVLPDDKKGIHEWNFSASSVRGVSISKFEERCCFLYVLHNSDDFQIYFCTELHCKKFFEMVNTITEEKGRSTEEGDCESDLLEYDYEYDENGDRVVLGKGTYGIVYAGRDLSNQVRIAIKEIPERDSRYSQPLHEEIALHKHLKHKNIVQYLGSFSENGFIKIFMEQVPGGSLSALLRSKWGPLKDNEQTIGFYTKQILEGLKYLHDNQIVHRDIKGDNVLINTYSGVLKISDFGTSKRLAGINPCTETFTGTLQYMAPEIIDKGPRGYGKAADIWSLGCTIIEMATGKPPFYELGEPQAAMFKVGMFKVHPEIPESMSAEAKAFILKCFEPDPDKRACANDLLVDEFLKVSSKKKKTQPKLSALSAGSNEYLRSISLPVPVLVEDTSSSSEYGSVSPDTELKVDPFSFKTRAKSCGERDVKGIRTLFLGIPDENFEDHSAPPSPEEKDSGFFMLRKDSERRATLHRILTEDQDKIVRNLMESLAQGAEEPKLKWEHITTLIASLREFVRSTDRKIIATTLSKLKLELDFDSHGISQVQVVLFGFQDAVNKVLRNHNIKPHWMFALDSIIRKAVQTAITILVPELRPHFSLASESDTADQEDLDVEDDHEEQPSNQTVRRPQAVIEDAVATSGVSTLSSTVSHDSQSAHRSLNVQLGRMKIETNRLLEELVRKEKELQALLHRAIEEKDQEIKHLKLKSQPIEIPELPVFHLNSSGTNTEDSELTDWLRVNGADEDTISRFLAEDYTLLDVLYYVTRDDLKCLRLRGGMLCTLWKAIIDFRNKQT
In words: Selectivity interaction (KinomeScan (DiscoverX)) EUB0000666a MAP3K5. To be noted: at 10 µM.

Assay [7] concerns the target cAMP-dependent protein kinase catalytic subunit alpha (Homo sapiens, UniProt P17612). Description: Selectivity interaction (Enzyme panel (AstraZeneca, AlphaScreen, functional assay)) EUB0000621a PRKACA.
The target in assay [8] is T3, Serine/threonine-protein kinase tousled-like 1 (Homo sapiens) (UniProt Q9UKI8).
T3 sequence (whole entry): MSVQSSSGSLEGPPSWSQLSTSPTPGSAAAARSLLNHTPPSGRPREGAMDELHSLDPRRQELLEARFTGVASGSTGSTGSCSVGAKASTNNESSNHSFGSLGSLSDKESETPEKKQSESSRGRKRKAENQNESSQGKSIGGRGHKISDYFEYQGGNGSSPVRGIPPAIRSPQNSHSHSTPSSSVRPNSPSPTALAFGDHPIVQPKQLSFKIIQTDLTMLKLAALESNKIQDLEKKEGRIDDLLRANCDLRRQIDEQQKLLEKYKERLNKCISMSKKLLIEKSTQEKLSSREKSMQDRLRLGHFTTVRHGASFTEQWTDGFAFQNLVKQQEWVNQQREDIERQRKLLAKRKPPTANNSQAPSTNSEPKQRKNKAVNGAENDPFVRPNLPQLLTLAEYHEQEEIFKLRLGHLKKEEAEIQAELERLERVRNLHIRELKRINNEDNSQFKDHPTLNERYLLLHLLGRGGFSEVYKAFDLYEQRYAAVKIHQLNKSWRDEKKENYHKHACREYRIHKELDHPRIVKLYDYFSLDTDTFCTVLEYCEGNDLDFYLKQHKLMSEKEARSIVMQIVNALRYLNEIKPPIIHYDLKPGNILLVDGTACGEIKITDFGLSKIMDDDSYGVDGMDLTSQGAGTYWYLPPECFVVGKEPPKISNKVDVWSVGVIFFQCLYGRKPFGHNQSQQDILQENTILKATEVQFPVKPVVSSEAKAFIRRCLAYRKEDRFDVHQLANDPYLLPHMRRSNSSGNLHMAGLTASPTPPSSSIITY
In words: Selectivity interaction (ActivX KiNativ screen (kinase selectivity in THP-1 cell lysates)) EUB0000639a TLK1. To be noted: lysate, at 1 µM. Type of assay: subcellular.

Some results are limits rather than exact numbers.

Sequence of Serine/threonine-protein kinase MRCK gamma (Homo sapiens) (Q6DT37 whole entry): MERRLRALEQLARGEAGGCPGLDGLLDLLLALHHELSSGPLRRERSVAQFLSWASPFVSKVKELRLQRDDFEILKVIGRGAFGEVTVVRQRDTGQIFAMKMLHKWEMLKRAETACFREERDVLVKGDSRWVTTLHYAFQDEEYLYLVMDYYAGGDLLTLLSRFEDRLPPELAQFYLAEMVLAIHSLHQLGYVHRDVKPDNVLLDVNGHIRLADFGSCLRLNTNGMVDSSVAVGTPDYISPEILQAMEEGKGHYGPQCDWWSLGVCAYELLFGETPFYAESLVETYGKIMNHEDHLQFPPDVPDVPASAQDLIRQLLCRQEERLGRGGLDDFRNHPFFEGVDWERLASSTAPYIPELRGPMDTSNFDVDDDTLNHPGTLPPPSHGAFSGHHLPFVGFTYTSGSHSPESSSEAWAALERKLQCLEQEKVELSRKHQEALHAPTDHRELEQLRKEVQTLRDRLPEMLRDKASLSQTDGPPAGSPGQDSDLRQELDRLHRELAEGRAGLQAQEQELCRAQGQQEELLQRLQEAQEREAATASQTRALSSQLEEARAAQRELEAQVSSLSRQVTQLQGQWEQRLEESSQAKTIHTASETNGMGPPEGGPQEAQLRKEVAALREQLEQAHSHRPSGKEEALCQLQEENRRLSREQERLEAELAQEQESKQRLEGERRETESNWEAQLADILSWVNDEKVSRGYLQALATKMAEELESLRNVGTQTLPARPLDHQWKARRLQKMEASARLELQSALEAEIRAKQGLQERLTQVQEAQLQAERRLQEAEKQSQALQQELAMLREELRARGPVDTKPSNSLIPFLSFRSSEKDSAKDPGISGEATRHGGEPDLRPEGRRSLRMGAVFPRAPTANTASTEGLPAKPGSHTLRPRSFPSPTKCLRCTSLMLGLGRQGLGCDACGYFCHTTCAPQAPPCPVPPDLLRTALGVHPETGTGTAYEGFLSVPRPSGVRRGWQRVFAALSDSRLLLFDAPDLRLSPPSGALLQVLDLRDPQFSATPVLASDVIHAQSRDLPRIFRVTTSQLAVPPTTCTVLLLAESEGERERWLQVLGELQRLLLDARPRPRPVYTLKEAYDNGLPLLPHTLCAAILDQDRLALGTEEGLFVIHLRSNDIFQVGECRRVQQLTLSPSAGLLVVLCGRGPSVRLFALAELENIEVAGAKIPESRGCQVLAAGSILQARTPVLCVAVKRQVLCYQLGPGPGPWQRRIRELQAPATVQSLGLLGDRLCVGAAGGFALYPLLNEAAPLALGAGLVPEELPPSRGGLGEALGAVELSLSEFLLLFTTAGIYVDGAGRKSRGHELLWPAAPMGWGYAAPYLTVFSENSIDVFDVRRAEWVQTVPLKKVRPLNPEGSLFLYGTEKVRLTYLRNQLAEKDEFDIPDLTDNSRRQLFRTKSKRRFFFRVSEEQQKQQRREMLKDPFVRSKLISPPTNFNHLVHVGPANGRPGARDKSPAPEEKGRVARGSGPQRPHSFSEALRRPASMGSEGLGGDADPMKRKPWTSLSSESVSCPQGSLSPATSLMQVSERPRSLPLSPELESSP
Sequence of Hepatocyte growth factor receptor (Homo sapiens), P08581 [M1250T] (P08581 whole entry M1250T): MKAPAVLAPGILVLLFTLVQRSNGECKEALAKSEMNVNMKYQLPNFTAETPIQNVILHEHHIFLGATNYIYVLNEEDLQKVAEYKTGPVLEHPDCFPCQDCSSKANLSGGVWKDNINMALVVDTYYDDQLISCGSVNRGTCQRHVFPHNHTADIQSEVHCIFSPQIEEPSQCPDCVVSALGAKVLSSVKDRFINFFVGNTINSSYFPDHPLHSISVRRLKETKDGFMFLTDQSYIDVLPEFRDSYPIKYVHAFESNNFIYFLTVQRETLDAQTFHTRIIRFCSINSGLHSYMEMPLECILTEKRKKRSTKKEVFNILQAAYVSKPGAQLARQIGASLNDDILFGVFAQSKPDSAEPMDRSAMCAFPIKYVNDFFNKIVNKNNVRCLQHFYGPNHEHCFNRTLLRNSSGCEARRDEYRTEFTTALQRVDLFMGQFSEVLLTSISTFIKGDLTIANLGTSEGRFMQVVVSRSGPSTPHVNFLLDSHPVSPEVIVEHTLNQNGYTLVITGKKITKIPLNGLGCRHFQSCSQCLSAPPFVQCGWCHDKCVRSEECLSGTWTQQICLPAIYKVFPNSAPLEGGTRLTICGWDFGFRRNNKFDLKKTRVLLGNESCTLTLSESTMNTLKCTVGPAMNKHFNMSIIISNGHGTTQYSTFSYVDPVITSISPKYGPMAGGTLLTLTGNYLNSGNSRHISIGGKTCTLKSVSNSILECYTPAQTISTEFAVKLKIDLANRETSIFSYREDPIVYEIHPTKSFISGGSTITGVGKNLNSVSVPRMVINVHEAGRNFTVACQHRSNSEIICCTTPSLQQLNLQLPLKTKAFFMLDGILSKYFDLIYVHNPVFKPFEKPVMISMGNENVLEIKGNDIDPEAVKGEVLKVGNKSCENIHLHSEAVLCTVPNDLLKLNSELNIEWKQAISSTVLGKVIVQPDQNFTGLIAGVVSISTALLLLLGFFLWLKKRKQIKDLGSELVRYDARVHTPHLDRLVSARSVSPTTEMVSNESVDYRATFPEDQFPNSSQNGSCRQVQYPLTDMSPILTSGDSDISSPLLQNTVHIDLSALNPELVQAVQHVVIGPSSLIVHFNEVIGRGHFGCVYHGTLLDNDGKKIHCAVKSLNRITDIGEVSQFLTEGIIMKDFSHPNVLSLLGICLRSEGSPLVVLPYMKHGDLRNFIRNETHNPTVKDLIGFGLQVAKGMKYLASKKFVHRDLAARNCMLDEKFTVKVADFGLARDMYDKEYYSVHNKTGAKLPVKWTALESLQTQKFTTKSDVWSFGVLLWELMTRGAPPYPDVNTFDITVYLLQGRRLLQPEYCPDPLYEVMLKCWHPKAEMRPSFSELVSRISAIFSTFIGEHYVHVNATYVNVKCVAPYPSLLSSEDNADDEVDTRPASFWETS
Sequence of Hepatocyte growth factor receptor (Homo sapiens), P08581 [Y1235D] (P08581 whole entry Y1235D): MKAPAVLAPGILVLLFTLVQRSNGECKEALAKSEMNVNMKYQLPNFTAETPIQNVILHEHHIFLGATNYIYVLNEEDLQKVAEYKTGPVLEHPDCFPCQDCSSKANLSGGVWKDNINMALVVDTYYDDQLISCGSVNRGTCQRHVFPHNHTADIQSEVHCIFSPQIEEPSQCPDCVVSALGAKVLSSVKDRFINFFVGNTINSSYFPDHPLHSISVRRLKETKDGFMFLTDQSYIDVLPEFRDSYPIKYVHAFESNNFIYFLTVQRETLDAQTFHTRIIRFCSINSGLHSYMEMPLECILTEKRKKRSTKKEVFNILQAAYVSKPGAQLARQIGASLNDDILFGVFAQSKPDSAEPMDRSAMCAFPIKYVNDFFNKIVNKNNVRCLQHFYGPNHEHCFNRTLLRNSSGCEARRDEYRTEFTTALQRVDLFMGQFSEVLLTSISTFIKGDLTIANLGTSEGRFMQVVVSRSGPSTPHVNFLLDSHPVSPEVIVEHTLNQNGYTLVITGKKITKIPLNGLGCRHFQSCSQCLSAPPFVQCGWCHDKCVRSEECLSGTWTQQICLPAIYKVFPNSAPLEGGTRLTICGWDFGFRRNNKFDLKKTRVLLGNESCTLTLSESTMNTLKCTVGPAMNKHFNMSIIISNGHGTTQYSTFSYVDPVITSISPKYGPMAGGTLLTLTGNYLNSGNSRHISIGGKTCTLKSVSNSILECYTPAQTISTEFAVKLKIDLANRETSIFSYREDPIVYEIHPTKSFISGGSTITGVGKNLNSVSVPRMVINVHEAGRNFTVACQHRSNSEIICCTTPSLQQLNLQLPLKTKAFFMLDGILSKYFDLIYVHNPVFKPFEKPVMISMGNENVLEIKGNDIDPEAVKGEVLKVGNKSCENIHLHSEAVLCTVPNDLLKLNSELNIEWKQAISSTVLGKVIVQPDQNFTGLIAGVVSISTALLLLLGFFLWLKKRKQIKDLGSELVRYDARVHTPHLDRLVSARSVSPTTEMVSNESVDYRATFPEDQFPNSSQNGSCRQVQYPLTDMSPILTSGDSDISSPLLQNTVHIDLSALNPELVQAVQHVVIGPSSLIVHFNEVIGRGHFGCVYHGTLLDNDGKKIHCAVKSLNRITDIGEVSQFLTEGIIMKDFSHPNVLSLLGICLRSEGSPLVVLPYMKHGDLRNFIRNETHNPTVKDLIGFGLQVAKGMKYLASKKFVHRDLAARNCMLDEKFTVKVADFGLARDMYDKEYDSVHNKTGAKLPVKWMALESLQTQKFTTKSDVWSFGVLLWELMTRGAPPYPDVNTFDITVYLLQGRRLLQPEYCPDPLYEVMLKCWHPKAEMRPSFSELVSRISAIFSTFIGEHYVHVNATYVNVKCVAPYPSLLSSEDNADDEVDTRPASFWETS

In turn, `Cn1cc(-n2cnc3c(NCc4nc5cc(Cl)c(Cl)cc5[nH]4)nc(N4CCOCC4)nc32)cn1` yielded a % of control in assay [1] of 2.69%.
Turning to `COCC(=O)NC/C=C/c1ccc2ncnc(Nc3ccc(Oc4ccc(C)nc4)c(C)c3)c2c1` [CP-724714], the % of control in assay [2] amounted to 100%.
In the case of `N#Cc1cccc(-c2c[nH]c3ncnc(N4CCOCC4)c23)c1`, the % of control in assay [3] came out at 96%; in assay [4], 93%; in assay [5], 93%.
In turn, `O=C(NOC[C@H](O)CO)c1ccc(F)c(F)c1Nc1ccc(I)cc1F` returned a % of control in assay [6] of 91%.
As for `Cc1cc([C@@H](C)Nc2ccccc2C(=O)O)c2nc(N3CCOCC3)cc(=O)n2c1` [AZD-6482], the concentration for half-maximal inhibition (IC50) in assay [7] was > 999 µM.
In the case of `CC[C@@H]1[C@H](F)C(=O)N[C@@H]1COc1nccc2cc(C(N)=O)c(OC)cc12` [ZIMLOVISERTIB], the % of inhibition in assay [8] came out at 34.3%.
